# Experiments:
# Format in all cases: in vivo
# [1] = system: LMNs in the lumbar spinal cord of hSOD1^G93A‐UeGFP mice; experiment: Lower motor neuron (LMN) quantification in lumbar spinal cord, hSOD1^G93A‐UeGFP mice; conditions: for Mean, Fig. 8E (LMN quantification in lumbar spinal cord) / Mean, Fig. 8F (LMN quantification in lumbar spinal cord) / Mean, Fig. 8G (LMN quantification in lumbar spinal cord): hSOD1G93A-UeGFP mice; for number of LMNs per section, lumbar spinal cord / number of NeuN^+/ChAT^+ LMNs (vulnerable to degeneration): hSOD1^G93A‐UeGFP mice, P120
# Description: (§1) hSOD1^G93A‐UeGFP, prpTDP‐43^A315T‐UeGFP and WT‐UeGFP mice were weighed and the required NU‐9 dose per weight was calculated (20 or 100 mg/kg), which was administered once daily by oral gavage, starting at postnatal day (P)60 and continuing until P120. Animals from the untreated group received the vehicle (NMP and olive oil) only. For oral administration purposes, 20 ga × 38 mm plastic feeding tubes were used (Instech Laboratories, Inc). The gavage tip was inserted into the mouth directly over the tongue and into the pharynx. While observing the swallowing reflex, the tip was safely and smoothly slid into the esophagus. Once the administration was completed, the gavage tip was pulled straight out.
# A 5‐mm block of lumbar spinal cord was sectioned in 50‐µm thick sections with a vibratome (Leica), and every other section was used for immunohistochemical analysis. LMNs were identified based on their location in the ventral horn and expression of the molecular marker ChAT. 10× Images were captured using an inverted epifluorescent Eclipse TE2000‐E microscope (Nikon). GFP^+/ChAT^+ and NeuN^+/ChAT^+ LMNs were quantified per section. The average number of LMNs per section is reported per mouse with n = 5 mice per group.
# [2] = system: prpTDP‐43^A315T‐UeGFP mice; experiment: Hanging wire test (max 60 s), prpTDP‐43^A315T‐UeGFP mice; conditions: for wire hanging, Predicted (LS) mean: prpTDP-43A315T-UeGFP (NU-9 100 mg/kg/day); for wire hanging, Average: prpTDP-43A315T-UeGFP, NU-9 100 mg/kg/day po
# Description: as §1
# (§2) Behavior data were collected from hSOD1^G93A‐UeGFP and WT‐UeGFP mice (starting at P60 and every 7 days until P116) and from prpTDP‐43^A315T‐UeGFP mice (at P60, P90, and P120) with the following number of mice for each group: WT‐UeGFP vehicle (n = 10), hSOD1^G93A‐UeGFP vehicle (n = 6), WT‐UeGFP 20 mg/kg/day NU‐9 (n = 5), hSOD1^G93A‐UeGFP 20 mg/kg/day NU‐9 (n = 7), WT‐UeGFP 100 mg/kg/day NU‐9 (n = 11), hSOD1^G93A‐UeGFP 100 mg/kg/day NU‐9 (n = 9), prpTDP‐43^A315T‐UeGFP untreated (n ≥ 3), and prpTDP‐43^A315T‐UeGFP 100 mg/kg/day NU‐9 (n = 4) (Table S3).
# (§3) Mice were placed on a wire mesh, which was then inverted and suspended above the home cage; the time when the animal fell was recorded. This test was performed three times for a maximum of 60 s each session, with a 1‐min rest period between each trial. The average performance for each session is presented as the average of the three trials.
# hSOD1^G93A‐UeGFP mice = experiment: Hanging wire test (max 60 s), hSOD1^G93A‐UeGFP mice; design: Mean Diff. (wire hanging), vehicle vs. NU-9 / Mean (wire hanging): unit not given here; conditions: for Hanging wire test, group mean (Mean 1 / Mean 2): hSOD1G93A-UeGFP (GS) mice; for Mean Diff. (wire hanging), vehicle vs. NU-9: hSOD1G93A-UeGFP vehicle vs. NU-9 20 mg/kg/day
# Description: as §1, §2, §3
# [3] = hSOD1G93A-UeGFP vehicle minus NU-9 20 mg/kg/day, Tukey's multiple comparisons test
# [4] = hSOD1G93A-UeGFP vehicle minus NU-9 100 mg/kg/day, Tukey's multiple comparisons test
structure (smiles),measurement,setting,value
C[C@H](Oc1cc(C(F)(F)F)cc(C(F)(F)F)c1)C1CC(=O)CC(=O)C1 [NU‐9],"Mean, Fig. 8E (LMN quantification in lumbar spinal cord)",[1]; NU-9 20 mg/kg/day,12.11
same,"Mean, Fig. 8F (LMN quantification in lumbar spinal cord)",[1]; NU-9 20 mg/kg/day,6.506
same,"Mean, Fig. 8G (LMN quantification in lumbar spinal cord)",[1]; NU-9 20 mg/kg/day,18.62
same,"Mean, Fig. 8E (LMN quantification in lumbar spinal cord)",[1]; NU-9 100 mg/kg/day,9.708
same,"Mean, Fig. 8F (LMN quantification in lumbar spinal cord)",[1]; NU-9 100 mg/kg/day,4.426
same,"Mean, Fig. 8G (LMN quantification in lumbar spinal cord)",[1]; NU-9 100 mg/kg/day,14.13
same,"Mean Diff., Fig. 8E, GS Vehicle vs. GS NU-9 (20)",[1]; [3],-1.853
same,"Mean Diff., Fig. 8F, GS Vehicle vs. GS NU-9 (20)",[1]; [3],0.3602
same,"Mean Diff., Fig. 8G, GS Vehicle vs. GS NU-9 (20)",[1]; [3],-1.493
same,"Mean Diff., Fig. 8E, GS Vehicle vs. GS NU-9 (100)",[1]; [4],0.5524
same,"Mean Diff., Fig. 8F, GS Vehicle vs. GS NU-9 (100)",[1]; [4],2.44
same,"Mean Diff., Fig. 8G, GS Vehicle vs. GS NU-9 (100)",[1]; [4],2.992
same,"number of LMNs per section, lumbar spinal cord",[1]; 20 mg/kg/day,18.6 ± 0.4 LMN
same,number of NeuN^+/ChAT^+ LMNs (vulnerable to degeneration),[1]; 20 mg/kg/day,12.1 ± 0.4 LMN
same,"number of LMNs per section, lumbar spinal cord",[1]; 100 mg/kg/day,14.1 ± 1.3 LMN
same,number of NeuN^+/ChAT^+ LMNs (vulnerable to degeneration),[1]; 100 mg/kg/day,9.7 ± 0.9 LMN
same,numbers of GFP^+ and ChAT^+ LMN (resistant to degeneration),[1]; regardless of genotype or treatment,comparable
same,"wire hanging, Predicted (LS) mean","[2]; P60, mixed-effects analysis",56.83
same,"wire hanging, Predicted (LS) mean","[2]; P90, mixed-effects analysis",57.17
same,"wire hanging, Predicted (LS) mean","[2]; P120, mixed-effects analysis",59.67
same,"wire hanging, Average",[2]; P60,55.7778
same,"wire hanging, Average",[2]; P90,56.2222
same,"wire hanging, Average",[2]; P120,59.5556
same,"hanging wire test, latency to fall","[2]; prpTDP‐43^A315T mice, 100 mg/kg/day, P120",59.5 ± 0.3 s
same,"Hanging wire test, group mean (Mean 1 / Mean 2)","hSOD1^G93A‐UeGFP mice; NU-9 20 mg/kg/day, P102, max 60 s",43 s
same,"Hanging wire test, group mean (Mean 1 / Mean 2)","hSOD1^G93A‐UeGFP mice; NU-9 20 mg/kg/day, P109, max 60 s",37.48 s
same,"Hanging wire test, group mean (Mean 1 / Mean 2)","hSOD1^G93A‐UeGFP mice; NU-9 20 mg/kg/day, P116, max 60 s",27.33 s
same,"Hanging wire test, group mean (Mean 1 / Mean 2)","hSOD1^G93A‐UeGFP mice; NU-9 100 mg/kg/day, P102, max 60 s",53.3 s
same,"Hanging wire test, group mean (Mean 1 / Mean 2)","hSOD1^G93A‐UeGFP mice; NU-9 100 mg/kg/day, P109, max 60 s",58.89 s
same,"Hanging wire test, group mean (Mean 1 / Mean 2)","hSOD1^G93A‐UeGFP mice; NU-9 100 mg/kg/day, P116, max 60 s",51.15 s
same,"Hanging wire test, mean difference vehicle minus NU-9","hSOD1^G93A‐UeGFP mice; hSOD1G93A-UeGFP (GS) vehicle vs. NU-9 20 mg/kg/day, P102",-0.6667 s
same,"Hanging wire test, mean difference vehicle minus NU-9","hSOD1^G93A‐UeGFP mice; hSOD1G93A-UeGFP (GS) vehicle vs. NU-9 20 mg/kg/day, P109",6.746 s
same,"Hanging wire test, mean difference vehicle minus NU-9","hSOD1^G93A‐UeGFP mice; hSOD1G93A-UeGFP (GS) vehicle vs. NU-9 20 mg/kg/day, P116",-4.722 s
same,"Hanging wire test, mean difference vehicle minus NU-9","hSOD1^G93A‐UeGFP mice; hSOD1G93A-UeGFP (GS) vehicle vs. NU-9 100 mg/kg/day, P102",-10.96 s
same,"Hanging wire test, mean difference vehicle minus NU-9","hSOD1^G93A‐UeGFP mice; hSOD1G93A-UeGFP (GS) vehicle vs. NU-9 100 mg/kg/day, P109",-14.67 s
same,"Hanging wire test, mean difference vehicle minus NU-9","hSOD1^G93A‐UeGFP mice; hSOD1G93A-UeGFP (GS) vehicle vs. NU-9 100 mg/kg/day, P116",-28.54 s
same,"Mean Diff. (wire hanging), vehicle vs. NU-9",hSOD1^G93A‐UeGFP mice; P60,-0.5238
same,"Mean Diff. (wire hanging), vehicle vs. NU-9",hSOD1^G93A‐UeGFP mice; P67,4.175
same,"Mean Diff. (wire hanging), vehicle vs. NU-9",hSOD1^G93A‐UeGFP mice; P74,-3.46
same,"Mean Diff. (wire hanging), vehicle vs. NU-9",hSOD1^G93A‐UeGFP mice; P81,-1.095
same,"Mean Diff. (wire hanging), vehicle vs. NU-9",hSOD1^G93A‐UeGFP mice; P88,-2.452
same,"Mean Diff. (wire hanging), vehicle vs. NU-9",hSOD1^G93A‐UeGFP mice; P95,-5.254
same,"Mean Diff. (wire hanging), vehicle vs. NU-9",hSOD1^G93A‐UeGFP mice; P102,-0.6667

# Reference: article PMC7898037, “Improving mitochondria and ER stability helps eliminate upper motor neuron degeneration that occurs due to mSOD1 toxicity and TDP‐43 pathology” (Clinical and Translational Medicine, 2021)
